Reference: patent publication US11964962B2, “Substituted pyridazinone compound and use thereof” (SHANDONG FIRST MEDICAL UNIVERSITY & SHANDONG ACADEMY OF …, priority 2020, dated 2024)

What was measured:
L929 mouse fibroblasts = experiment: Cytotoxicity in normal cell line L929 (CCK-8 proliferation assay); assay type: cell-based; conditions: 48 h treatment, CCK-8, absorbance 450 nm, read-out: IC50 for proliferation of L929 cell lines
Experimental: Concentration of L929 mouse fibroblasts was adjusted to 4×10^5 cells/mL. The cells were seeded in a 96 well plate with […] per well. Wells not supplied with the cells (blank group) were provided. The cells were cultivated on the plate and were allowed to adhere overnight. Then, cell culture supernatants were collected, and 200 μL of test compound at various concentrations were added to the corresponding cell culture supernatants. Control and compound-treated cell culture supernatants were included in each experiment with triplicate wells for each experimental group, and were cultivated for a further 48 h. Then, the resulting cell culture supernatants were again collected, and fresh medium supplemented with 10% CCK-8 solution was added thereto. Incubation for an additional 3 h was carried out. Thereafter, the absorbance of the medium was measured at 450 nm wavelength, and the inhibitory rate of cell proliferation by test compound was calculated according to the equation below: R (%)=1−(Aexperiment−Ablank)/(Acontrol−Ablank)

[1] = Metabolic stability in human liver microsomes; assay type: in vitro ADME; conditions: pH 7.4, 37° C.; for half-life: read-out: T ½
Experimental: Microsomal incubations were performed in 0.05 M Tris-KCl buffer (pH 7.4) in the presence of test compound dissolved in DMSO at a series of concentrations, rat liver microsomes (RLMs) (S9 or human liver microsomes (HLMs)), rat liver cytoplasms (RLCs) (human liver cytoplasms (HLCs, 0.5 mg/mL)), 1.3 mM β-nicotinamide adenine dinucleotide phosphate sodium salt (NADP), 3.3 mM D-glucose-6-phosphate disodium salt (G-6-P), 0.4 units/mL glucose-6-phosphate dehydrogenase (G-6-PDH, type XII), and 3.3 mM MgCl2. The volume of the organic solvents was not more than 1% by volume with respect to the reaction system. After a preincubation of the mixture in a rotating mixer at 37° C. and 850 rpm for 3 min, hepatic microsomes were added to initiate incubation reactions, which were conducted at 37° C. for 30 min, 60 min, or 90 min, respectively. After the incubations were complete, the reactions were terminated by addition of an equal volume of ice cold acetonitrile, followed by addition of 20 μL of a 1 mg/mL solution of geniposide (internal standard) in methanol and then by centrifugation at 10,000 rpm for 10 min to precipitate protein. The […] was blown dry with nitrogen at 40° C. and then dissolved in 100 μL of methanol, which was used as mobile phase. 10 μL of the solution was sampled and analyzed by HPLC.

THRβ = target: T1, THRβ (Homo sapiens, UniProt P10828); experiment: THRβ agonist activity, fluorescence ratio 665 nm/615 nm with EE-RxRα and biotin-GRIP; assay type: biochemical; conditions: incubated overnight at 4° C.
T1 construct: GST
T1 sequence (P10828 1-461): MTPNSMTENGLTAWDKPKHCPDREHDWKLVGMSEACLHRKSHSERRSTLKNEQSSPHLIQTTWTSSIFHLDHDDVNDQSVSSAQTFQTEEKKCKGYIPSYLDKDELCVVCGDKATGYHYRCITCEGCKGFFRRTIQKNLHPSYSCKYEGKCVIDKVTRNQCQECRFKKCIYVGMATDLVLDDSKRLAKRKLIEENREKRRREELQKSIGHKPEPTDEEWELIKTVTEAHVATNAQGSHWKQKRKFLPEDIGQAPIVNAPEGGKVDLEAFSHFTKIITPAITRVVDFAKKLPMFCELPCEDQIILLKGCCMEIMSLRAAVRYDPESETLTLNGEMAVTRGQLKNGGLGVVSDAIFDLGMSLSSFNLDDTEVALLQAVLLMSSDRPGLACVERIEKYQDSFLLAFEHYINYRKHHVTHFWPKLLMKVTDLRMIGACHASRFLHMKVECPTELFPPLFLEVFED
T1 sequence (P19793 225-462 partner limits assumed): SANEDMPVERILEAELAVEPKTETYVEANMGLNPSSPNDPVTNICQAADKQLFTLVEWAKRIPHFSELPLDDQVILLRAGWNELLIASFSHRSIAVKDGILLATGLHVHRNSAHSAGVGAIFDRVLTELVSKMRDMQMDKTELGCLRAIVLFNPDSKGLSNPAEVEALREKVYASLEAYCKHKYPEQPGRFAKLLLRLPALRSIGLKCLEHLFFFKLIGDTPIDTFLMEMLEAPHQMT
T1 sequence (Q15596 679-703 partner limits assumed): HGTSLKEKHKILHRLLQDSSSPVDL
Experimental: (§1) Test compound was dissolved and serially diluted in dimethyl sulfoxide (DMSO) with a final compound concentration of 60 mM. […] Buffer 1 was employed again to prepare EE-RxRα at the same concentrations as those of THRα and THRβ, respectively. Buffer 1+5% DMSO was employed to prepare biotin-GRIP (THRα: […], THRβ: 100 nM). Buffer 2 (50 mM Tris, pH 7.4, 100 mM NaCl, and 0.2 mg/mL BSA) was employed to prepare a mixed solution of 2×Eu-anti-GST and 2×streptavidin-d2. 5 μL of the THRα (THRβ) solution+5 μL of EE-RxRα+2.5 μL of the DMSO solution of test compound+2.5 μL of biotin-GRIP+5 μL of the mixed solution of 2×Eu-anti-GST and 2×streptavidin-d2 was employed as the reaction system, and incubated overnight at 4° C.

THRα = target: T2, THRα (Homo sapiens, UniProt P10827); experiment: THRα agonist activity, fluorescence ratio 665 nm/615 nm with EE-RxRα and biotin-GRIP; assay type: biochemical; conditions: incubated overnight at 4° C.
T2 construct: GST
T2 sequence (P10827 1-410 isoform P10827-2): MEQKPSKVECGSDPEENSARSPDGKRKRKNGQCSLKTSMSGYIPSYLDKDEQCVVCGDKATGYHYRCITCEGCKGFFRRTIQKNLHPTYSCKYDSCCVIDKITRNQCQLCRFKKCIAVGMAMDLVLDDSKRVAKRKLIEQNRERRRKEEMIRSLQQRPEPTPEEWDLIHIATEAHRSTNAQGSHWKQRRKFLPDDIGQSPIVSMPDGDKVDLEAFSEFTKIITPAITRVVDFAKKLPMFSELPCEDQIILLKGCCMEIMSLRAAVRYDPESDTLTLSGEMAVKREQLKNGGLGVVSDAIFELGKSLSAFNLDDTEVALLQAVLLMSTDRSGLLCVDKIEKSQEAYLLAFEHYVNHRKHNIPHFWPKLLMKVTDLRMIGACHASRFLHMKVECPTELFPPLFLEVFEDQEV
T2 sequence (P19793 225-462 partner limits assumed): T1 sequence (P19793 225-462 partner limits assumed)
T2 sequence (Q15596 679-703 partner limits assumed): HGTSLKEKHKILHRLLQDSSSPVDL
Experimental: as §1

SMILES | microsomal CLint [1] | half-life [1] | EC50 (THRβ) | EC50 (THRα) | IC50 (L929 mouse fibroblasts)
N#Cc1nn(-c2cc(Cl)c(Oc3cc(CC4CCCC4)c(=O)[nH]n3)c(Cl)c2)c(=O)[nH]c1=O [Compound 6] | 0.18 µL/min/mg | 16.3 h | 0.0949 µM | 2.75 µM | > 50 µM
N#Cc1nn(-c2ccc(Oc3cc(CC4CCCC4)c(=O)[nH]n3)c(F)c2)c(=O)[nH]c1=O [Compound 7] | 0.12 µL/min/mg | 18.3 h | 0.013 µM | 10 µM | > 50 µM
Cc1c(Oc2c(Cl)cc(-n3nc(C#N)c(=O)[nH]c3=O)cc2Cl)n[nH]c(=O)c1C [Compound 22] | – | – | 0.184 µM | 0.631 µM | > 50 µM
CC(C)c1cc(Oc2ccc(-n3nc(C#N)c(=O)[nH]c3=O)cc2F)n[nH]c1=O [Compound 25] | – | – | 2.7 µM | 0.014 µM | > 50 µM
CC(C)c1cc(Oc2ccc(-n3nc(C#N)c(=O)[nH]c3=O)cc2Cl)n[nH]c1=O [Compound 26] | – | – | 0.055 µM | 2.07 µM | > 50 µM
CC(C)c1cc(Oc2ccc(-n3nc(C#N)c(=O)[nH]c3=O)cc2Br)n[nH]c1=O [Compound 27] | – | – | 0.0311 µM | 2.55 µM | > 50 µM
CC(C)c1cc(Oc2c(Br)cc(-n3nc(C#N)c(=O)[nH]c3=O)cc2Br)n[nH]c1=O [Compound 28] | – | – | 0.102 µM | 0.0381 µM | > 50 µM
CC(C)c1cc(Oc2ccc(-n3nc(C#N)c(=O)[nH]c3=O)c(Cl)c2)n[nH]c1=O [Compound 30] | – | – | 17.3 µM | > 60 µM | > 50 µM
COc1cc(-n2nc(C#N)c(=O)[nH]c2=O)ccc1Oc1cc(C(C)C)c(=O)[nH]n1 [Compound 31] | – | – | 0.0625 µM | 5.11 µM | > 50 µM
N#Cc1nn(-c2ccc(Oc3cc(C4CCCC4)c(=O)[nH]n3)c(F)c2)c(=O)[nH]c1=O [Compound 32] | – | – | 0.279 µM | 18.5 µM | > 50 µM
N#Cc1nn(-c2cc(Cl)c(Oc3cc(C4CCCC4)c(=O)[nH]n3)cc2Cl)c(=O)[nH]c1=O [Compound 34] | – | – | 3.85 µM | 0.014 µM | > 50 µM
CC(C)c1cc(=O)[nH]nc1Oc1cc(Cl)c(-n2nc(C#N)c(=O)[nH]c2=O)cc1Cl [Compound 35] | – | – | > 60 µM | > 60 µM | > 50 µM
CC(C)c1cc(Oc2cc(Cl)c(-n3cc(C#N)c(=O)[nH]c3=O)cc2Cl)n[nH]c1=O [Compound 40] | – | – | > 63 µM | 24.1 µM | > 50 µM
CC(C)(C)Cc1cc(Oc2c(Cl)cc(-n3cc(C#N)c(=O)[nH]c3=O)cc2Cl)n[nH]c1=O [Compound 43] | – | – | 0.0403 µM | 6.62 µM | > 50 µM
CC(C)(C)Cc1cc(Oc2cc(Cl)c(-n3cc(C#N)c(=O)[nH]c3=O)cc2Cl)n[nH]c1=O [Compound 44] | – | – | 0.042 µM | 2.32 µM | > 50 µM
CC(C)c1cc(Oc2c(Cl)cc(-c3c[nH]c(=O)c(O)c3)cc2Cl)n[nH]c1=O [Compound 47, 6-(2,6-dichloro-4-(5-hydroxy-6-oxo-1,6-dihydropyridin-3-yl)phenoxy)-4-isopropylpyridazin-3(2H)-one] | – | – | 1.65 µM | 17.6 µM | > 50 µM
CC(C)(C)c1cc(Oc2c(Cl)cc(-c3c[nH]c(=O)c(O)c3)cc2Cl)n[nH]c1=O [Compound 48] | – | – | 0.745 µM | 3.66 µM | > 50 µM
CC(C)c1cc(Oc2c(Cl)cc(-c3nn[nH]n3)cc2Cl)n[nH]c1=O [Compound 49, 6-(2,6-dichloro-4-(2H-tetrazol-5-yl)phenoxy)-4-isopropylpyridazin-3(2H)-one] | – | – | 0.254 µM | 3.32 µM | > 50 µM
CC(C)c1cc(Oc2c(Cl)cc(-n3nc(C#N)c(=O)[nH]c3=O)cc2Cl)n[nH]c1=O [MGL-3196, Resmetirom, reference compound] | 2.21 µL/min/mg | < 6.67 h | – | – | –

The next lines start with results.

microsomal CLint [1] | half-life [1] | EC50 (THRβ) | EC50 (THRα) | SMILES | IC50 (L929 mouse fibroblasts)
– | – | 0.776 µM | 4.59 µM | Cc1c(Oc2ccc(-n3nc(C#N)c(=O)[nH]c3=O)cc2F)n[nH]c(=O)c1C [Compound 23] | > 50 µM
0.452 µL/min/mg | 14.5 h | 0.0101 µM | 3.29 µM | Cc1c(Oc2ccc(-n3nc(C#N)c(=O)[nH]c3=O)cc2Cl)n[nH]c(=O)c1C [Compound 24] | > 50 µM
– | – | 4.16 µM | 13.8 µM | CC(C)c1cc(=O)[nH]nc1Oc1ccc(-n2nc(C#N)c(=O)[nH]c2=O)c(Cl)c1 [Compound 36] | > 50 µM
– | – | 3.22 µM | 0.001 µM | N#Cc1nn(-c2ccc(Oc3n[nH]c(=O)cc3C3CC3)c(Cl)c2)c(=O)[nH]c1=O [Compound 37] | > 50 µM
– | – | 0.783 µM | 4.66 µM | N#Cc1nn(-c2cc(Cl)c(Oc3n[nH]c(=O)cc3C3CCCC3)c(Cl)c2)c(=O)[nH]c1=O [Compound 38] | > 50 µM
– | – | 0.583 µM | 3.22 µM | N#Cc1nn(-c2ccc(Oc3n[nH]c(=O)cc3C3CCCC3)c(Cl)c2)c(=O)[nH]c1=O [Compound 39] | > 50 µM
– | – | > 60 µM | 0.001 µM | CC(C)c1cc(Oc2ccc(-n3cc(C#N)c(=O)[nH]c3=O)c(Cl)c2)n[nH]c1=O [Compound 41] | > 50 µM
– | – | 0.0257 µM | 1.81 µM | N#Cc1cn(-c2cc(Cl)c(Oc3cc(C4CCC4)c(=O)[nH]n3)c(Cl)c2)c(=O)[nH]c1=O [Compound 42, 1-(3,5-dichloro-4-((5-cyclobutyl-6-oxo-1,6-dihydropyridazin-3-yl)oxy)phenyl)-2,4-dioxo-1,2,3,4-tetrahydropyrimidine-5-carbonitrile] | > 50 µM
– | – | 1.4 µM | 50.8 µM | COc1cc(-n2nc(C#N)c(=O)[nH]c2=O)ccc1Oc1n[nH]c(=O)c(C)c1C [Compound 46] | > 50 µM
– | – | 0.465 µM | 2.59 µM | CC(C)(C)c1cc(Oc2c(Cl)cc(-c3nn[nH]n3)cc2Cl)n[nH]c1=O [Compound 50] | > 50 µM
